Laboratory results published in ChEMBL document CHEMBL1201862, “PubChem BioAssay data set” (2004).
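All cell lines were grown in 96-well plates and treated with compound for 48 hours. GI50 = concentration required for 50% inhibition of growth.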 The source made the active and inactive calls. Cut-off read from the data, not from the text of the source: active = GI50 up to about 1.1 µM and inactive = higher.

What was measured:
Assay in all cases: NCI anticancer screen, dose series, 48 h
SK-MEL-5 = tested on: SK-MEL-5
UO-31 = tested on: UO-31
SF-268 = tested on: SF-268
SNB-19 = tested on: SNB-19
DU-145 = tested on: DU-145
OVCAR-5 = tested on: OVCAR-5
SN12C = tested on: SN12C
A549 = tested on: A549
OVCAR-4 = tested on: OVCAR-4
HCC 2998 = tested on: HCC 2998
RPMI-8226 = tested on: RPMI-8226
BT-549 = tested on: BT-549
NCI-H460 = tested on: NCI-H460
SF-295 = tested on: SF-295
SK-MEL-28 = tested on: SK-MEL-28
K562 = tested on: K562
NCI-H23 = tested on: NCI-H23

Structure (SMILES) | GI50 (SK-MEL-5) | GI50 (UO-31) | GI50 (SF-268) | GI50 (SNB-19) | GI50 (DU-145) | GI50 (OVCAR-5) | GI50 (SN12C) | GI50 (A549) | GI50 (OVCAR-4) | GI50 (HCC 2998) | GI50 (RPMI-8226) | GI50 (BT-549) | GI50 (NCI-H460) | GI50 (SF-295) | GI50 (SK-MEL-28) | GI50 (K562) | GI50 (NCI-H23)
N#CCCN(CCCN(CCCN(C(=O)Nc1ccccc1)c1ccccc1)C(=O)Nc1ccccc1)C(=O)Nc1ccccc1 | > 8.75 µM (inactive) | > 8.75 µM (inactive) | > 8.75 µM (inactive) | > 8.75 µM (inactive) | > 8.75 µM (inactive) | > 8.75 µM (inactive) | > 8.75 µM (inactive) | > 8.75 µM (inactive) | > 100 µM (inactive) | > 100 µM (inactive) | 3.44 µM (inactive) | > 8.75 µM (inactive) | > 8.75 µM (inactive) | > 8.75 µM (inactive) | > 8.75 µM (inactive) | > 8.75 µM (inactive) | –
CCCCCCCC(=O)N1C2CC3CCC2(CS1(=O)=O)C3(C)C (centres undefined) | 18.2 µM (inactive) | 22.6 µM (inactive) | 35.4 µM (inactive) | 26 µM (inactive) | 36.6 µM (inactive) | 44.8 µM (inactive) | 20.9 µM (inactive) | 27 µM (inactive) | 32.7 µM (inactive) | 24.7 µM (inactive) | 19.7 µM (inactive) | 26.4 µM (inactive) | 30.1 µM (inactive) | 22.2 µM (inactive) | 14.4 µM (inactive) | – | 33.3 µM (inactive)
CC(=O)c1cc(CC2Cc3cc4c(cc3C2=O)CCC4)cc2c1CCC2 (centres undefined) | 14 µM (inactive) | 49.5 µM (inactive) | 83.9 µM (inactive) | 78 µM (inactive) | > 100 µM (inactive) | > 100 µM (inactive) | 47.4 µM (inactive) | 29.8 µM (inactive) | 54.8 µM (inactive) | 46 µM (inactive) | 10.7 µM (inactive) | 15.4 µM (inactive) | 36 µM (inactive) | 20.4 µM (inactive) | > 100 µM (inactive) | 12.5 µM (inactive) | 15 µM (inactive)
CCOC(=O)c1nc2cc(C(F)(F)F)ccc2nc1Nc1ccc(Cl)c(Cl)c1 | > 100 µM (inactive) | > 100 µM (inactive) | > 100 µM (inactive) | > 100 µM (inactive) | > 100 µM (inactive) | > 100 µM (inactive) | > 100 µM (inactive) | 84.3 µM (inactive) | 97.5 µM (inactive) | 69.3 µM (inactive) | 33.4 µM (inactive) | 86.3 µM (inactive) | 35.3 µM (inactive) | 74.6 µM (inactive) | > 100 µM (inactive) | – | > 100 µM (inactive)
COc1ccc(C2C(C#N)=C(S)N(C3OC(CO)C(O)C(O)C3O)C(c3ccccc3)=C2C(C)=O)cc1 (centres undefined) | 25.1 µM (inactive) | > 100 µM (inactive) | 45.7 µM (inactive) | 89.3 µM (inactive) | > 100 µM (inactive) | > 100 µM (inactive) | > 100 µM (inactive) | > 100 µM (inactive) | > 10 µM (inactive) | 92 µM (inactive) | 51.3 µM (inactive) | > 100 µM (inactive) | 88.1 µM (inactive) | > 100 µM (inactive) | 91.8 µM (inactive) | 43.6 µM (inactive) | > 100 µM (inactive)
Cn1c(-c2ccc[se]2)ccc1-c1ccc(CO)[se]1 | 24.9 µM (inactive) | 36.3 µM (inactive) | 44 µM (inactive) | > 46.5 µM (inactive) | 35.9 µM (inactive) | < 0.0209 µM (active) | > 76.6 µM (inactive) | 52.6 µM (inactive) | 0.0392 µM (active) | 0.792 µM (active) | 1.28 µM (inactive) | 27.7 µM (inactive) | 0.0206 µM (active) | 31.3 µM (inactive) | 52.8 µM (inactive) | 0.159 µM (active) | 24.9 µM (inactive)
